Data on 51 compounds can be found in ChEMBL document CHEMBL4052768, “Discovery of novel 2-(3-phenylpiperazin-1-yl)-pyrimidin-4-ones as glycogen synthase kinase-3β inhibitors” (Bioorg Med Chem Lett, 2017).

Bounds are passed on as bounds.

Test [1] has as its target Glycogen synthase kinase-3 beta (Homo sapiens, UniProt P49841). The test can be described thus: Inhibition of recombinant human GSK-3beta using prephosphorylated GS-1 peptide as substrate after 1 hr in presence of [gamma-32P]ATP by liquid scintillation spectrometric method.
In test [2] the target is T1, Cytochrome P450 2D6 (Homo sapiens, UniProt P10635). The test can be described thus: Inhibition of recombinant human CYP2D6. In kind it is ADME.
T1 sequence (P10635 whole entry): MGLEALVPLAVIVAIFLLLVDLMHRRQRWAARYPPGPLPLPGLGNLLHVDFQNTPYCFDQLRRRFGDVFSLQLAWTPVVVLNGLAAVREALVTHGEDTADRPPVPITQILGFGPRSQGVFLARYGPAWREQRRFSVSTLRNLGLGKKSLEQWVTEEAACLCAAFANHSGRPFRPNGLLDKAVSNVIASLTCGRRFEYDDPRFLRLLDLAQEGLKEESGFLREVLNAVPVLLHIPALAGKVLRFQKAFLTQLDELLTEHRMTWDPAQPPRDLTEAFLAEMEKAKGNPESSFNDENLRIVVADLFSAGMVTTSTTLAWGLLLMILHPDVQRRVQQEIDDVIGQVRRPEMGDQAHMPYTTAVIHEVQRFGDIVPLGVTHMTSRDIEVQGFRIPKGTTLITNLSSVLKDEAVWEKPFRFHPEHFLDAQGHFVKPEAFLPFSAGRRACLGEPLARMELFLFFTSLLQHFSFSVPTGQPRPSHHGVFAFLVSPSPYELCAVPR
The target in test [3] is T2, Cytochrome P450 3A4 (Homo sapiens, UniProt P08684). Nature of the test: Inhibition of recombinant human CYP3A4. It counts as ADME.
T2 sequence (P08684 whole entry): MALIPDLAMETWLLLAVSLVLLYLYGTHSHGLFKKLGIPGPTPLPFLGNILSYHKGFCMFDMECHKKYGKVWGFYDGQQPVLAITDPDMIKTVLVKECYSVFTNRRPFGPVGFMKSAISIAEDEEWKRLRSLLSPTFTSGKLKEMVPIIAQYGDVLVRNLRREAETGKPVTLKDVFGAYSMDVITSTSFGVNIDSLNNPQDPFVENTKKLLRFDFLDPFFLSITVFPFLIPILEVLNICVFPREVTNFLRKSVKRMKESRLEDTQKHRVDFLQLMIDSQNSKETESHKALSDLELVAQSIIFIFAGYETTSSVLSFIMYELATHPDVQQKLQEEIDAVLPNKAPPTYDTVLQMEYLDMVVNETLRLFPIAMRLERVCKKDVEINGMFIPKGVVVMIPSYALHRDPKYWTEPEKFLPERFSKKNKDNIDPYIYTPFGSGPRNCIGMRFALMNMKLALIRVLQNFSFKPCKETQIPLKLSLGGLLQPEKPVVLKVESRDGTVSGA
Test [4] has as its target T3, Cytochrome P450 1A2 (Homo sapiens, UniProt P05177).
T3 sequence (P05177 whole entry): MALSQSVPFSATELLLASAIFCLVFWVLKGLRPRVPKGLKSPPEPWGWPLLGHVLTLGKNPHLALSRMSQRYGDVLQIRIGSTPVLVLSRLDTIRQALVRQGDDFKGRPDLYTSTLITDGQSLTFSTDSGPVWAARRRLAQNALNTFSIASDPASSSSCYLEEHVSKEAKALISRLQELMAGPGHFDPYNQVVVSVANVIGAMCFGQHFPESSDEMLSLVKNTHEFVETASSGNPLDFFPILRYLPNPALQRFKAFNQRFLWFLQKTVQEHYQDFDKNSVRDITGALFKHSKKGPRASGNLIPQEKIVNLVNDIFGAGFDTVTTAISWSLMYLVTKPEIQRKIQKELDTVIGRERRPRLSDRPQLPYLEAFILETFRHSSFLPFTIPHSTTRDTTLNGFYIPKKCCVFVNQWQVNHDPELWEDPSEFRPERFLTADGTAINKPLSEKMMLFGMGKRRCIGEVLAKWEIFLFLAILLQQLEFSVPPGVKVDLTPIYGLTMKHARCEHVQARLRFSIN
The test can be described thus: Inhibition of CYP1A2 in human liver microsomes. It counts as ADME. On the technique in general: Liver microsomes are a subcellular fraction often used to study metabolism.

For test [5], the target named is T3, Cytochrome P450 1A2. Nature of the test: Inhibition of recombinant human CYP1A2. It counts as ADME.
Test [6] has as its target T2, Cytochrome P450 3A4. Nature of the test: Inhibition of CYP3A4 in human liver microsomes. In kind it is ADME.
Test [7] addresses T1, Cytochrome P450 2D6. Nature of the test: Inhibition of CYP2D6 in human liver microsomes. It counts as ADME.

One may read the IC50 as the concentration needed to halve the response being measured.

Glycogen synthase kinase-3 beta, sequence (P49841 whole entry): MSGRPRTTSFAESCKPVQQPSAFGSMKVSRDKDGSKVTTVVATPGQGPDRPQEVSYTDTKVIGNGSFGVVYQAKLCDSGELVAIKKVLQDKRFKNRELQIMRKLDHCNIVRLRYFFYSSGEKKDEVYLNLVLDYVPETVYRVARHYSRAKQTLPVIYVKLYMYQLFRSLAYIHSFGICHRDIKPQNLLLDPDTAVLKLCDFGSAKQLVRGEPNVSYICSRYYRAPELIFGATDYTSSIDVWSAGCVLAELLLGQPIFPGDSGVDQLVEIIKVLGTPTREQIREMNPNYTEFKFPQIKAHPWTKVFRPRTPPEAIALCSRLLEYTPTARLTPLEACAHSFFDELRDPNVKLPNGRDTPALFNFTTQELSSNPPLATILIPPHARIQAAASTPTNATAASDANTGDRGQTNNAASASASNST

In the case of `Cc1cc(F)ccc1C1CN(c2nc(-c3ccncc3)cc(=O)n2C)CCN1` (stereo unspecified), the IC50 in test [1] amounted to 24 nM.

Regarding `Cn1c(N2CCNC(c3ccccc3Cl)C2)nc(-c2ccncc2)cc1=O` (racemic), in test [1], the half-maximal inhibitory concentration (IC50) came to 9.6 nM.

With `Cn1c(N2CCNC(c3ccccc3F)C2)nc(-c2ccncc2)cc1=O` (stereo unspecified), in test [1], the IC50 was 11 nM.

Take `Cn1c(N2CCNC(c3cccc(Cl)c3)C2)nc(-c2ccncc2)cc1=O` (racemic): the concentration for half-maximal inhibition (IC50) in test [1] came to 5.4 nM.

Take `Cn1c(N2CCNC(c3ccc(C#N)cc3)C2)nc(-c2ccncc2)cc1=O` (racemic): in test [1], the concentration for half-maximal inhibition (IC50) came out at 15 nM.

With `COc1cc(F)ccc1C1CN(c2nc(-c3ccncc3)cc(=O)n2C)CCN1` (single isomer, unassigned; enantiomer 1), the concentration for half-maximal inhibition (IC50) was 54 nM in test [1], 1000 nM at Cytochrome P450 2D6 [2], more than 50000 nM at Cytochrome P450 3A4 [3] and more than 53000 nM on Cytochrome P450 1A2 [4].

Regarding `COc1cc(F)ccc1C1CN(c2nc(-c3ccncc3)cc(=O)n2C)CCN1C(C)=O` (stereo unspecified), the half-inhibitory concentration (IC50) in test [1] worked out at 1700 nM.

Take `Cn1c(N2CCNC(c3ccccc3Cl)C2)nc(-c2ccncn2)cc1=O` (racemic): the IC50 in test [1] turned out to be 2.6 nM.

Take `COc1cc(F)ccc1C1CN(c2nc(-c3ccncn3)cc(=O)n2C)CCN1Cc1ccccc1` (stereo unspecified): in test [1], the half-maximal inhibitory concentration (IC50) amounted to 220 nM.

As for `Cn1c(N2CCNC(c3ccccc3F)C2)nc(-c2ccncn2)cc1=O` (stereo unspecified), in test [1], the IC50 stood at 8.2 nM.

In the case of `Cn1c(N2CCNC(c3cccc(Br)c3)C2)nc(-c2ccncn2)cc1=O` (racemic), the concentration for half-maximal inhibition (IC50) in test [1] was determined as 2 nM.

For `Cn1c(N2CCN[C@@H](c3ccc(Cl)cc3)C2)nc(-c2ccncc2)cc1=O`, the half-maximal inhibitory concentration (IC50) in test [1] amounted to 11 nM.

Consider `Cn1c(N2CCNC(c3ccc(C#N)cc3)C2)nc(-c2ccncn2)cc1=O` (racemic), for which the IC50 in test [1] was determined as 7.4 nM.

Consider `COc1cc(F)ccc1C1CN(c2nc(-c3ccncn3)cc(=O)n2C)CCN1` (single isomer, unassigned; enantiomer 2), for which the IC50 in test [1] was 0.25 nM; at Cytochrome P450 2D6 [2], 9100 nM; at Cytochrome P450 1A2 [4] it was more than 53000 nM.

As for `COc1ccccc1C1CN(c2nc(-c3ccncc3)cc(=O)n2C)CCN1` (racemic), the IC50 in test [1] is 1.8 nM; on Cytochrome P450 2D6 [2], less than 200 nM; at Cytochrome P450 1A2 [5] it was more than 50000 nM; at Cytochrome P450 3A4 [3], more than 50000 nM.

For the compound `COc1cc(F)ccc1C1CN(c2nc(-c3ccncn3)cc(=O)n2C)CCN1C(C)=O` (stereo unspecified), the half-maximal inhibitory concentration (IC50) in test [1] worked out at 1500 nM.

Turning to `COc1cc(F)cc(F)c1C1CN(c2nc(-c3ccncn3)cc(=O)n2C)CCN1` (stereo unspecified), the half-inhibitory concentration (IC50) in test [1] is 1.7 nM.

`Cn1c(N2CCNC(c3cccc(Cl)c3)C2)nc(-c2ccncn2)cc1=O` (racemic): in test [1], the concentration for half-maximal inhibition (IC50) turned out to be 1.1 nM.

In the case of `Cn1c(N2CCNC(c3ccc(F)cc3)C2)nc(-c2ccncc2)cc1=O` (racemic), the 50% inhibitory concentration (IC50) in test [1] amounted to 18 nM.

As for `Cn1c(N2CCNC(c3ccc(Cl)c(Cl)c3)C2)nc(-c2ccncc2)cc1=O` (stereo unspecified), the half-inhibitory concentration (IC50) in test [1] came out at 4.3 nM.

Take `Cn1c(N2CCNC(c3ccccc3)C2)nc(-c2ccncc2)cc1=O` (racemic): the IC50 in test [1] came to 18 nM.

With `COc1cc(F)ccc1C1CN(c2nc(-c3ccncc3)cc(=O)n2C)CCN1` (racemic), the half-inhibitory concentration (IC50) in test [1] is 0.9 nM; on Cytochrome P450 2D6 [2] it was 1800 nM; at Cytochrome P450 3A4 [3], more than 53000 nM; against Cytochrome P450 1A2 [4], more than 53000 nM.

Consider `COc1ccc(C2CN(c3nc(-c4ccncc4)cc(=O)n3C)CCN2)cc1OC` (stereo unspecified), for which, in test [1], the 50% inhibitory concentration (IC50) stood at 5.2 nM.

Turning to `COc1cc(F)ccc1C1CN(c2nc(-c3ccncn3)cc(=O)n2C)CCN1C` (stereo unspecified), the IC50 in test [1] came to 26 nM.

Consider `CCOc1ccccc1C1CN(c2nc(-c3ccncn3)cc(=O)n2C)CCN1` (stereo unspecified), for which, in test [1], the IC50 came out at 20 nM.

For the compound `COc1cc(F)ccc1C1CN(c2nc(-c3ccncn3)cc(=O)n2C)CCN1` (single isomer, unassigned; Enantiomer-1), the half-maximal inhibitory concentration (IC50) in test [1] is 44 nM; at Cytochrome P450 2D6 [2], 3400 nM; at Cytochrome P450 3A4 [3], more than 50000 nM; against Cytochrome P450 1A2 [4] it was more than 53000 nM.

With `Cn1c(N2CCNC(c3ccc(Br)cc3)C2)nc(-c2ccncc2)cc1=O` (racemic), the half-maximal inhibitory concentration (IC50) in test [1] stood at 22 nM.

On to `Cn1c(N2CCNC(c3ccc(Cl)cc3)C2)nc(-c2ccncc2)cc1=O` (racemic), for which, in test [1], the IC50 came out at 6.6 nM.

`Cn1c(N2CCN[C@H](c3ccc(Cl)cc3)C2)nc(-c2ccncn2)cc1=O`: the 50% inhibitory concentration (IC50) in test [1] came out at 26 nM.

As to `Cn1c(N2CCNC(c3ccc(F)cc3)C2)nc(-c2ccncn2)cc1=O` (racemic), the IC50 in test [1] is 8.6 nM.

Turning to `Cn1c(N2CCNC(c3cccc(F)c3)C2)nc(-c2ccncn2)cc1=O` (racemic), the half-maximal inhibitory concentration (IC50) in test [1] was 12 nM.

As for `COc1cccc(C2CN(c3nc(-c4ccncn4)cc(=O)n3C)CCN2)c1` (racemic), the IC50 in test [1] was found to be 6.7 nM.

With `CCOc1ccccc1C1CN(c2nc(-c3ccncc3)cc(=O)n2C)CCN1` (stereo unspecified), the IC50 in test [1] was 25 nM.

On to `COc1ccc(C2CN(c3nc(-c4ccncc4)cc(=O)n3C)CCN2)cc1` (racemic), for which the concentration for half-maximal inhibition (IC50) in test [1] is 4.7 nM; on Cytochrome P450 3A4 [6], more than 53000 nM; at Cytochrome P450 2D6 [7] it was 45000 nM; at Cytochrome P450 1A2 [4], more than 53000 nM.

For the compound `COc1cc(F)ccc1C1CN(c2nc(-c3ccncn3)cc(=O)n2C)CCN1` (racemic), the values for the half-maximal inhibitory concentration (IC50) (in test [1]; on Cytochrome P450 2D6 [2]; against Cytochrome P450 1A2 [4]) were 0.72 nM, 2700 nM and more than 53000 nM, respectively.

With `Cn1c(N2CCNC(c3ccc(Br)cc3)C2)nc(-c2ccncn2)cc1=O` (racemic), the IC50 in test [1] worked out at 8.1 nM.

With `COc1ccccc1C1CN(c2nc(-c3ccncn3)cc(=O)n2C)CCN1` (stereo unspecified), in test [1], the IC50 was determined as 1.8 nM.

On to `COc1cc(F)ccc1C1CN(c2nc(-c3ccncc3)cc(=O)n2C)CCN1C` (stereo unspecified), for which the IC50 in test [1] was 56 nM.

With `COc1ccc(C2CN(c3nc(-c4ccncn4)cc(=O)n3C)CCN2)cc1` (racemic), the IC50 in test [1] came out at 3.5 nM.

On to `COc1cc(F)ccc1C1CN(c2nc(-c3ccncc3)cc(=O)n2C)CCN1` (single isomer, unassigned; enantiomer 2), for which the half-maximal inhibitory concentration (IC50) was 0.4 nM in test [1], 6000 nM on Cytochrome P450 2D6 [2], more than 50000 nM at Cytochrome P450 3A4 [3] and more than 53000 nM against Cytochrome P450 1A2 [4].

With `Cn1c(N2CCNC(c3ccc(Cl)c(Cl)c3)C2)nc(-c2ccncn2)cc1=O` (stereo unspecified), in test [1], the IC50 is 2.3 nM.

Take `COc1cccc(C2CN(c3nc(-c4ccncc4)cc(=O)n3C)CCN2)c1` (racemic): the 50% inhibitory concentration (IC50) was 11 nM in test [1], 400 nM on Cytochrome P450 2D6 [2], more than 50000 nM at Cytochrome P450 1A2 [5] and more than 50000 nM on Cytochrome P450 3A4 [3].

For the compound `Cn1c(N2CCNC(c3ccccc3Br)C2)nc(-c2ccncc2)cc1=O` (racemic), the IC50 in test [1] amounted to 13 nM.

For `Cn1c(N2CCNC(c3cccc(F)c3)C2)nc(-c2ccncc2)cc1=O` (racemic), the half-inhibitory concentration (IC50) in test [1] worked out at 22 nM.

Turning to `COc1cc(F)cc(F)c1C1CN(c2nc(-c3ccncc3)cc(=O)n2C)CCN1` (stereo unspecified), the half-maximal inhibitory concentration (IC50) in test [1] came to 2 nM.

Regarding `COc1ccc(C2CN(c3nc(-c4ccncn4)cc(=O)n3C)CCN2)cc1OC` (stereo unspecified), in test [1], the IC50 is 7.8 nM.

Consider `Cn1c(N2CCN[C@@H](c3ccc(Cl)cc3)C2)nc(-c2ccncn2)cc1=O`, for which the IC50 in test [1] was 1.2 nM.

Regarding `Cn1c(N2CCNC(c3ccc(Cl)cc3)C2)nc(-c2ccncn2)cc1=O` (racemic), the IC50 in test [1] amounted to 1.7 nM.

For `COc1cc(F)ccc1C1CN(c2nc(-c3ccncc3)cc(=O)n2C)CCN1Cc1ccccc1` (stereo unspecified), the IC50 in test [1] amounted to 1200 nM.

As to `Cn1c(N2CCN[C@H](c3ccc(Cl)cc3)C2)nc(-c2ccncc2)cc1=O`, the IC50 in test [1] was 110 nM.

For the compound `Cn1c(N2CCNC(c3ccccc3Br)C2)nc(-c2ccncn2)cc1=O` (racemic), the half-maximal inhibitory concentration (IC50) in test [1] is 4.3 nM.
